Read-outs that look alike come from different tables or passages of the source.
Columns and labels:
[1] = symmetric NRFB, cited from earlier work
[2] = Cyclic voltammetry: redox potentials, diffusion coefficients, electron-transfer rate constants; type: physicochemical; settings: for D0: calculated using eq 2 (Randles-Sevcik); for D0 / k0: GC electrode; for k0: calculated using eq 4 (Nicholson method)
Description: These redox events correspond to the 2b^+/2b couple at +0.08 V, the 2b/2b^− couple at −0.20 V, the 2b^−/2b^2− couple at −0.90 V, and the 2b^2−/2b^3− couple at −1.38 V vs SCE.
The mass transport and electrokinetics of 2b were also evaluated because a RFB analyte must have fast diffusion kinetics (D) and heterogeneous electron-transfer rate (k0) to have a high rate capability. Roughly, k0 of 10^−5 cm/s is considered a minimum requirement, and this minimum requirement is met by most of the recently studied NRFB analytes. The rate is also dependent on the electrode material, and is generally orders of magnitude higher when using Hg, Pt, or Au electrodes. For this reason, kinetic parameters were probed using a glass carbon (GC) button electrode. CV's were recorded of 2b at varying scan rates, and the D values were determined by plotting the current density versus the square root of the scan rate (FIGS. 6A-C). From the slope of the linear fit of this line and the Randles-Sevcik equation (see equations below), D for each redox couple was obtained (eq. 2). Plots of the inverse of the square root of the scan rate versus the transfer parameter (ψ), extracted from the peak to peak separation (ΔEp), were also constructed, so that k0 could be calculated using the Nicholson method (TABLE 5, eq 3-4). For each redox couple D is on the order of 10^−6 cm^2/s, and k0 is on the order of 10^−3 cm/s (TABLE 5).
All potentials are referenced to the SCE couple, and ferrocene was used as an external standard where the E/of ferrocene/ferrocenium is +0.40 V vs. SCE in 0.1 M Bu4NPF6MeCN. Bu4NPF6 was recrystallized from ethanol and placed under vacuum for 72 hours before electrolyte solutions were made. Electrolyte solutions were stored over 3 Å molecular sieves for at least 48 hours before use. Sieves were activated by heating under vacuum at 270° C. for at least 72 hours. UV-Vis spectra were obtained using a 1 cm cuvette using an Agilent 8453 UV-vis spectrophotometer.
The diffusion coefficients for each redox couple were determined by first plotting CV's of 2b at varying scan rates (0.2-8 V/s) (FIG. 10). The diffusion coefficients were then determined from the slope of the peak current density (jp) versus the square root of the scan rate (υ^1/2):
[…], transfer parameter (ψ) was calculated by obtaining the peak to peak separation of each redox couple (ΔEp), at varying scan rates (0.2-8 V/s) (FIG. 10):
[formula] The electron transfer rate constant (k0) was then extracted from the slope of a plot of versus υ^1/2 (FIG. 10):
[formula] where n is the number of electrons transferred, F is the Faraday constant (96485 Cmol^−1), D is the averaged diffusion coefficient for the oxidation and reduction reaction (DO and DR) (cm^2/s), υ is the scan rate (V/s), R is the ideal gas constant (8.314 J/mol-K) and T is the temperature (K). Calculation 4.

[3] = Charging/discharging, symmetric NRFB H-cell, glass frit separator; settings: after three weeks of charging/discharging
Description: Complex 2b was tested in both symmetric and asymmetric NRFB configurations and in both cases, an anion exchange membrane (AEM), and a glass frit as separator between the working electrode and counter electrode compartments were trialed. […] A current of 0.2 mA for the charge and 0.2 mA for the discharge were chosen as described below. Two consecutive plateaus are observed for each charging and discharging process, indicative of two electron transfer processes (FIGS. 12A-B and 13).
The first plateau at −0.97 V is determined by the oxidation of 2b^− to 2b in the cathodic compartment, and the concurrent reduction of 2b^− to 2b^2− in the anodic compartment. The second plateau at −0.21 V is determined by the oxidation of 2b to 2b^+ in the cathodic compartment, with concurrent reduction of 2b^2− to 2b^3− in the anodic compartment. Upon discharge, the reduction of 2b^+ to 2b and 2b to 2b^− in the cathodic compartment results in a small potential drop, with discharging plateaus of −0.98 and −0.24 V, respectively.
Charge-discharge studies were performed inside of a glovebox under an inert atmosphere using a CH Instruments Electrochemical Analyzer Model 1400. The custom H-cell was designed by Adams and Chittenden (FIGS. 21A-B and 22) with compartments separated by an AMI-7001S Anion exchange membrane (Membrane International Inc.) or glass frit. […]

[4] = Charging/discharging, asymmetric H-cell, anion exchange membrane separator
Description: Complex 2b was also tested as an analyte in an asymmetric cell configuration because this allowed us to achieve a cell design where up to four electrons are stored during each charge and discharge cycle. Using an AEM as separator, potentials and currents were initially chosen to maximize the energy density of the cell: storing 4 electrons in the battery. Over 10 cycles and 45 h, a Coulombic efficiency of 98% was observed (FIGS. 17A-C). […] An asymmetric cell with 2b functioning as a four-electron analyte could be revisited as AEM technology is refined.
Charge-discharge studies were performed inside of a glovebox under an inert atmosphere using a CH Instruments Electrochemical Analyzer Model 1400. The custom H-cell was designed by Adams and Chittenden (FIGS. 21A-B and 22) with compartments separated by an AMI-7001S Anion exchange membrane (Membrane International Inc.) or glass frit. If a membrane was used, it was soaked in 0.5 M nBu4NBF4MeCN electrolyte solution for 48 h prior to use. […] In the asymmetric studies, the counter compartment contained only 3.5 mL 0.5 M nBu4NBF4MeCN electrolyte solution, and an isomolded graphite rod counter electrode. […]

[5] = Working electrode screen, extended cycling; settings: GC electrodes, 100 cycles
From the text: Potential working electrodes for the NRFB cell tests were also screened. GC, reticulated vitreous carbon (RVC, 20, 80 and 100 PPI), graphite rods, and carbon felt which are all commonly employed as working electrodes in NRFB applications were examined.

[6] = Cyclic voltammetry: redox potentials, diffusion coefficients, electron-transfer rate constants; type: physicochemical

Compound: COCCOCCOCCNc1ccc(NCCOCCOCCOC)c2c1C(=O)c1ccccc1C2=O [(Me-TEG)2DAAQ]
- Cactive ([1]; solvent DME): 1000 mM

Compound: C1=Cc2nc1c(-c1ccccc1)c1ccc([nH]1)c(-c1ccccc1)c1nc(c(-c3ccccc3)c3ccc([nH]3)c2-c2ccccc2)C=C1 [H2TPP]
- Cactive ([1]; solvent CH2Cl2): 10 mM

Compound: [(I2P^−)2Al][OTf] [2b]
- E1/2 ([2]; couple 2b^0/1−): −1.08 V vs SCE
- D0 ([2]; couple 2b^0/1−): 6.3 (5.5) 10^−6 cm^2/s
- k0 ([2]; couple 2b^0/1−): 13 ± 2.7 × 10^−3 cm/s
- E1/2 ([2]; couple 2b^1+/0): −0.30 V vs SCE
- D0 ([2]; couple 2b^1+/0): 5.1 (4.9) 10^−6 cm^2/s
- k0 ([2]; couple 2b^1+/0): 8.9 ± 1.2 × 10^−3 cm/s
- E1/2 ([2]; couple 2b^1−/2−): −1.51 V vs SCE
- D0 ([2]; couple 2b^1−/2−): 9.9 (4.6) 10^−6 cm^2/s
- k0 ([2]; couple 2b^1−/2−): 10 ± 2.1 × 10^−3 cm/s
- D0 ([2]; couple 2b^2+/1+): 4.7 (6.8) 10^−6 cm^2/s
- k0 ([2]; couple 2b^2+/1+): 8.1 ± 1.7 × 10^−3 cm/s
- D, order of magnitude ([2]; each redox couple): ~10^−6 cm^2/s
- k0, order of magnitude ([2]; each redox couple): ~10^−3 cm/s
- degradation of analyte [3]: Partial degradation
- degradation of the analyte ([4]; asymmetric NRFB configuration, multiple cycles, separator not stated): no degradation of the analyte
- decomposition of the analyte ([4]; asymmetric cell, AEM, after 45 h): Decomposition of the analyte was observed
- stability of analyte remaining in solution [5]: stable to extended cycling in solution
- redox potential, 2b/2b^− couple ([6]; CV, 0.5 M Bu4NBF4 MeCN): −0.20 V vs SCE
- redox potential, 2b^2−/2b^3− couple ([6]; CV, 0.5 M Bu4NBF4 MeCN): −1.38 V vs SCE
- redox potential, 2b^+/2b couple ([6]; CV, 0.5 M Bu4NBF4 MeCN): +0.08 V vs SCE
- redox potential, 2b^−/2b^2− couple ([6]; CV, 0.5 M Bu4NBF4 MeCN): −0.90 V vs SCE
- E1/2 ([6]; couple 2b^2+/1+): 0.06 V vs SCE

Compound: [bpy(COOMe)2]3Cr
- Cactive ([1]; solvent MeCN): 210 mM

Compound: phthalocyanine Mn-nitride [PcMnN]
- Cactive ([1]; solvent MeCN): 1 mM

Source: patent publication US12665203B2, “Organo-metallic analytes for nonaqueous redox flow batteries” (The Regents of the University of California, priority 2020, dated 2026)
